The record followed here is US20160135455A1, “SAFENED HERBICIDAL COMPOSITIONS COMPRISING PYRIDINE CARBOXYLIC ACIDS” (Dow AgroSciences LLC, priority 2014, published 2016).

Holding throughout (type): in vivo
In series [1] the test system is velvetleaf (ABUTH, Abutilon theophrasti). The series can be described thus: Postemergence greenhouse trial, herbicidal efficacy on velvetleaf. Particulars: post-emergence, 528 h. Here is the method: (§1) Seeds of the desired test plant species were planted in Sun Gro MetroMix® 306 planting mixture, which typically has a pH of 6.0 to 6.8 and an organic matter content of about 30 percent, in plastic pots with a surface area of 103.2 square centimeters (cm^2). When required to ensure good germination and healthy plants, a fungicide treatment and/or other chemical or physical treatment was applied. The plants were grown for 7-36 days (d) in a greenhouse with an approximate 14-hour (h) photoperiod which was maintained at about 23° C. during the day and 22° C. during the night. Nutrients and water were added on a regular basis and supplemental lighting was provided with overhead metal halide 1000-Watt lamps as necessary. The plants were employed for testing when they reached the second or third true leaf stage.
(§2) Weighed amounts of technical material were dissolved in a volume of 97:3 volume per volume (v/v) acetone/dimethyl sulfoxide (DMSO) to stock solutions. […] The concentrated stock solutions were diluted with an aqueous mixture of 1.5% v/v of Agri-dex crop oil concentrate to provide the appropriate application rates. Compound requirements are based upon a 12 milliliter (mL) application volume at a rate of 187 liters per hectare (L/ha). Stocks solutions of the safeners were prepared following the same procedure. Spray solutions of the safeners and experimental compound mixtures were prepared by adding the stock solutions to the appropriate amount of dilution solution to form a 12 mL spray solution in two-way combinations. Formulated compounds were applied to the plant material with an overhead Mandel track sprayer equipped with 8002E nozzles calibrated to deliver 187 L/ha over an application area of 0.503 square meters (m^2) at a spray height of 18 inches (43 centimeters (cm)) above average plant canopy. Control plants were sprayed in the same manner with the solvent blank. All herbicide application (component a) rates are in g ae/ha and all safener (component b) rates are in g ai/ha.
(§3) The treated plants and control plants were placed in a greenhouse as described above and watered by sub-irrigation to prevent wash-off of the test compounds. After 20-22 d, the condition of the test plants as compared with that of the control plants was determined visually and scored on a scale of 0 to 100 percent where 0 corresponds to no injury and 100 corresponds to complete kill. The condition of the test plants was compared with that of the control plants as determined visually and scored on a scale of 0 to 100 percent, where 0 corresponds to no injury and 100 corresponds to complete kill. Colby's equation was used to determine the herbicidal effects expected from the mixtures.

Series [2] deals with sorghum (SORVU, Sorghum bicolor). Nature of the series: Postemergence greenhouse trial, herbicidal efficacy on sorghum. Particulars: applied alone at 35 g/ha, rated after 20-22 d. On the procedure: as §1, §2, §3
Series [3] concerns chickweed (STEME, Stellaria media). The series can be described thus: Postemergence greenhouse trial, herbicidal efficacy on chickweed. Particulars: post-emergence, 528 h. On the procedure:
as §1, §2, §3

In series [4] the test system is lambsquarters (CHEAL, Chenopodium album). The series can be described thus: Postemergence greenhouse trial, herbicidal efficacy on lambsquarters. The conditions noted are these: post-emergence, 528 h. Here is the method: as §1, §2, §3
In series [5] the test system is poinsettia (EPHHL, Euphorbia heterophylla). The series can be described thus: Postemergence greenhouse trial, herbicidal efficacy on poinsettia. Particulars: Euphorbia heterophylla, post-emergence, 528 h, read-out: % visual injury, Obs, EPHHL. On the procedure: as §1, §2, §3
The subject of series [6] is giant foxtail (SETFA, Setaria faberi). Nature of the series: Postemergence greenhouse trial, herbicidal efficacy on giant foxtail. The conditions noted are these: applied alone at 35 g/ha; for % visual injury, Obs, SETFA: rated after 20-22 d; for Obs, % visual injury, SETFA: scored 20-22 d. On the procedure:
as §1, §2, §3

Series [7] concerns thistle (CIRAR, Cirsium arvense). Nature of the series: Postemergence greenhouse trial, herbicidal efficacy on thistle. Particulars: post-emergence, 528 h. On the procedure: as §1, §2, §3
For series [8], the system named is wheat (TRZAS), Triticum aestivum (spring wheat). Nature of the series: Postemergence greenhouse trial, crop injury (phytotoxicity/safening) on wheat. Particulars: applied alone at 35 g/ha, scored 20-22 d, 0 = no injury, 100 = complete kill. Here is the method:
as §1, §2, §3
(§4) The safener fenchlorazole-ethyl was combined with compound 1, compound 2, compound 3, compound 4, compound 5, and compound 6, and applied to wheat (TRZAS), and the phytotoxicity of the herbicidal compositions was measured. In addition, the efficacy of the herbicidal composition on velvetleaf (ABUTH, Abutilon theophrasti), pigweed (AMARE, Amaranthus retroflexus), winter rape (BRSNW, Brassica napus), lambsquarters (CHEAL, Chenopodium album), thistle (CIRAR, Cirsium arvense), nutsedge (CYPES, Cyperus esculentus), poinsettia (EPHHL, Euphorbia heterophylla), wild buckwheat (POLCO, Polygonum convolvulus), giant foxtail (SETFA, Setaria faberi), sorghum (SORVU, Sorghum bicolor), chickweed (STEME, Stellaria media), and wild pansy (VIOTR, Viola tricolor) was evaluated.
The safener isoxadifen-ethyl was combined with compound 1, compound 2, compound 3, compound 4, compound 5, and compound 6, and applied to wheat (TRZAS), and the phytotoxicity of the herbicidal compositions was measured. […]

Series [9] concerns corn/maize (ZEAMX), Zea mays. The series can be described thus: Postemergence greenhouse trial, crop injury (phytotoxicity/safening) on corn/maize. Particulars: applied alone at 35 g/ha, rated after 20-22 d. On the procedure:
as §1
as §2, with “All herbicide application (component a) rates are in g ae/ha and all safener (component b) rates are in g ai/ha.” left out
as §3, with “Colby's equation was used to determine the herbicidal effects expected from the mixtures.” left out
as §4, with “compound” for “compound 3, compound 4, compound”, “corn/maize (ZEAMX)” for “wheat (TRZAS),”, “bicolor), and” for “bicolor),”, “media)” for “media), and wild pansy (VIOTR, Viola tricolor)”
The safener mefenpyr-diethyl was combined with compound 1, compound 2, and compound 5, and applied to corn/maize (ZEAMX) and the phytotoxicity of the herbicidal compositions were measured. […]

Series [10] has as its system wild pansy (VIOTR, Viola tricolor). The series can be described thus: Postemergence greenhouse trial, herbicidal efficacy on wild pansy. Particulars: for pest or weed control at 35 g/ha: Viola tricolor, post-emergence, 528 h, read-out: Obs, % visual injury, VIOTR; for % visual injury, Obs, VIOTR: rated after 20-22 d. Here is the method:
as §1, §2, §3

For series [11], the system named is wild buckwheat (POLCO, Polygonum convolvulus). Nature of the series: Postemergence greenhouse trial, herbicidal efficacy on wild buckwheat. The conditions noted are these: Fallopia convolvulus, post-emergence, 528 h. Here is the method:
as §1, §2, §3

The test system of series [12] is winter rape (BRSNW, Brassica napus). The series can be described thus: Postemergence greenhouse trial, herbicidal efficacy on winter rape. The conditions noted are these: post-emergence, 528 h. Here is the method:
as §1, §2, §3

In series [13] the test system is pigweed (AMARE, Amaranthus retroflexus). The series can be described thus: Postemergence greenhouse trial, herbicidal efficacy on pigweed. Particulars: post-emergence, 528 h. Here is the method: as §1, §2, §3
[14] abbreviates: applied alone at 35 g/ha, postemergence.

Read-outs that look alike come from different tables or passages of the source.

For `COCC(=O)n1ccc2ccc(-c3nc(C(=O)OC)c(Cl)c(N)c3F)c(F)c21` [compound 6], the pest or weed control at 35 g/ha in [1] (applied alone at 35 g/ha, postemergence, rated after 20-22 d, read-out: % visual injury, Obs, ABUTH) amounted to 80%; in [1] (applied alone at 35 g/ha, postemergence, scored 20-22 d, read-out: Obs, % visual injury, ABUTH), 80%; in [3] (applied alone at 35 g/ha, postemergence, rated after 20-22 d, read-out: % visual injury, Obs, STEME), 97%; in series [3] (applied alone at 35 g/ha, postemergence, scored 20-22 d, read-out: Obs, % visual injury, STEME), 97%; in [4] (applied alone at 35 g/ha, postemergence, rated after 20-22 d, read-out: % visual injury, Obs, CHEAL), 100%; in [4] (applied alone at 35 g/ha, postemergence, scored 20-22 d, read-out: Obs, % visual injury, CHEAL) it was 100%. Further, the pest or weed control at 35 g/ha is 100% in series [5] (applied alone at 35 g/ha, postemergence, rated after 20-22 d); 75% in series [7] (applied alone at 35 g/ha, postemergence, rated after 20-22 d, read-out: % visual injury, Obs, CIRAR); 75% in series [7] (applied alone at 35 g/ha, postemergence, scored 20-22 d, read-out: Obs, % visual injury, CIRAR); 30% in [10] (applied alone at 35 g/ha, postemergence, scored 20-22 d); 97% in series [11] (applied alone at 35 g/ha, postemergence, rated after 20-22 d, read-out: % visual injury, Obs, POLCO); 97% in [11] (applied alone at 35 g/ha, postemergence, scored 20-22 d, read-out: Obs, % visual injury, POLCO). Further, the pest or weed control at 35 g/ha in [13] (applied alone at 35 g/ha, postemergence, rated after 20-22 d, read-out: % visual injury, Obs, AMARE) was 100%; in [13] (applied alone at 35 g/ha, postemergence, scored 20-22 d, read-out: Obs, % visual injury, AMARE), 100%. Further, the “% visual injury, Obs, SORVU” value in series [2] is listed as 70%. In series [6], the “% visual injury, Obs, SETFA” value was determined as 10%. In addition, in [6], the “Obs, % visual injury, SETFA” value is given as 10%. In addition, the “Obs, % visual injury, TRZAS” value in [8] is 35%. In series [9], the “% visual injury, Obs, ZEAMX” value was 25%. Moreover, the “% visual injury, Obs, VIOTR” value in series [10] (setting [14]) is recorded as 30%. The plant injury at 35 g/ha in series [12] (applied alone at 35 g/ha, postemergence, rated after 20-22 d, read-out: % visual injury, Obs, BRSNW) came out at 75%; in [12] (applied alone at 35 g/ha, postemergence, scored 20-22 d, read-out: Obs, % visual injury, BRSNW), 75%.
In the case of `CCOC(=O)C1=NOC(c2ccccc2)(c2ccccc2)C1` [isoxadifen-ethyl, reference compound], the pest or weed control at 35 g/ha was determined as 0% in series [1] (read-out: % visual injury, Obs, ABUTH); 0% in series [1] (read-out: Obs, % visual injury, ABUTH); 0% in [3] (read-out: % visual injury, Obs, STEME); 0% in series [3] (read-out: Obs, % visual injury, STEME); 0% in [4] (read-out: % visual injury, Obs, CHEAL); 0% in [4] (read-out: Obs, % visual injury, CHEAL). For the same compound, the pest or weed control at 35 g/ha in series [5] amounted to 0%; in [7] (read-out: % visual injury, Obs, CIRAR) it was 0%; in series [7] (read-out: Obs, % visual injury, CIRAR), 0%; in series [10] it was 0%; in [11] (read-out: % visual injury, Obs, POLCO), 0%; in series [11] (read-out: Obs, % visual injury, POLCO), 0%. The pest or weed control at 35 g/ha in series [13] (read-out: % visual injury, Obs, AMARE) was determined as 0%; in series [13] (read-out: Obs, % visual injury, AMARE), 0%. Moreover, in series [6], the “% visual injury, Obs, SETFA” value worked out at 0%. For the same compound, the “Obs, % visual injury, SETFA” value in [6] worked out at 0%. The “Obs, % visual injury, TRZAS” value in [8] was found to be 0%. Also, the “% visual injury, Obs, ZEAMX” value in series [9] is reported as 0%. Further, the “% visual injury, Obs, VIOTR” value in series [10] (setting [14]) is 0%. Also, the plant injury at 35 g/ha in series [12] (read-out: % visual injury, Obs, BRSNW) was determined as 0%; in series [12] (read-out: Obs, % visual injury, BRSNW), 0%.
